Legend:
Type in all cases: in vivo
[1] = tested on: Barnyardgrass; assay: Pre-emergent herbicidal activity (Table A); details: Echinochloa crus-galli, pre-emergence, Bygr, 11.2 kg/ha, 10-14 days, read-out: herbicidal rating (% inhibition)
Summary of the method: (§1)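 Seeds or vegetative propagules were set on topsoil compacted to 0.95 to 1.27 cm below the pan rim, then covered with soil thoroughly mixed with a known amount of test compound in acetone or water carrier. Ratings follow a scale of percent inhibition per species.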

[2] = tested on: Cocklebur; assay: Pre-emergent herbicidal activity (Table A); details: Xanthium strumarium, pre-emergence, Cobu, 11.2 kg/ha, 10-14 days, read-out: herbicidal rating (% inhibition)
Summary of the method: as §1

[3] = tested on: Downy Brome; assay: Pre-emergent herbicidal activity (Table A); details: Bromus tectorum, pre-emergence, Dobr, 11.2 kg/ha, 10-14 days, read-out: herbicidal rating (% inhibition)
Summary of the method: as §1

[4] = tested on: Morningglory; assay: Pre-emergent herbicidal activity (Table A); details: Ipomoea, pre-emergence, Mogl, 11.2 kg/ha, 10-14 days, read-out: herbicidal rating (% inhibition)
Summary of the method: as §1

[5] = tested on: Velvetleaf; assay: Pre-emergent herbicidal activity (Table A); details: Abutilon theophrasti, pre-emergence, Vele, 11.2 kg/ha, 10-14 days, read-out: herbicidal rating (% inhibition)
Summary of the method: as §1

[6] = tested on: Yellow Nutsedge; assay: Pre-emergent herbicidal activity (Table A); details: Cyperus, pre-emergence, Yens, 11.2 kg/ha, 10-14 days, read-out: herbicidal rating (% inhibition)
Summary of the method: as §1

[7] = tested on: Bygr; assay: plant injury after spraying emerged plants (Table D); set-up: scale not given here
From the text: (§2) Topsoil (silt loam) is sieved through a screen having 1.27 cm openings. […] This mixture is steam sterilized and then placed in aluminum pans 6.985 cm deep having ten holes in the bottom each 0.635 cm in diameter. The soil mixture is compacted to a depth of 1.27 cm. from the top of the pan. A predetermined number of seeds of each of several dicotyledonous and monocotyledonous annual plant species and/or vegetative propagules for the perennial plant species are placed on the soil and pressed into the soil surface. The seeds and/or vegetative propagules are covered with 1.27 cm of a mixture of 50% topsoil and 50% of a mixture of Canadian sphagnum peat moss, vermiculite and a wetting agent. The pans are then placed on a capillary mat on a greenhouse bench and subirrigated as needed.
(§3) In the following Table D the legends used to identify the plant species are the same as those used in the preceding Table B.

[8] = tested on: Cobu; assay: as above; set-up: scale not given here
From the text: as §2, §3

[9] = tested on: Corn; assay: as above; set-up: scale not given here
From the text: as §2, §3

[10] = tested on: Grft; assay: as above; set-up: scale not given here
From the text: as §2, §3

[11] = tested on: Lacg; assay: as above; set-up: scale not given here
From the text: as §2, §3

[12] = tested on: Prmi; assay: as above; set-up: scale not given here
From the text: as §2, §3

[13] = tested on: Rice; assay: as above; set-up: scale not given here
From the text: as §2, §3

[14] = tested on: Sobe; assay: as above; set-up: scale not given here
From the text: as §2, §3

[15] = tested on: Whez; assay: as above; set-up: scale not given here
From the text: as §2, §3

[16] = tested on: Dobr; assay: as above
From the text: Topsoil (silt loam) is sieved through a screen having 1.27 cm openings. In some of the tests the soil was mixed with fertilizer (1225 g/cu. m of 12/5/9 containing isobutylidene diurea), while in other tests the fertilizer was omitted. This mixture is steam sterilized and then placed in aluminum pans 6.985 cm deep having ten holes in the bottom each 0.635 cm in diameter. The soil mixture is compacted to a depth of 1.27 cm. from the top of the pan. A predetermined number of seeds of each of several dicotyledonous and monocotyledonous annual plant species and/or vegetative propagules for the perennial plant species are placed on the soil and pressed into the soil surface. The seeds and/or vegetative propagules are covered with 1.27 cm of a mixture of 50% topsoil and 50% of a mixture of Canadian sphagnum peat moss, vermiculite and a wetting agent. The pans are then placed on a capillary mat on a greenhouse bench and subirrigated as needed. After the plants reach the desired stage (9 to 14 days, 1 to 3 true leaf stage), each pan (except the control pans) is removed to a spraying chamber and sprayed by means of an atomizer, operating at a spray pressure of 170.3 kPa ([…]) at the application rates noted in Table D. In the spray solution is an amount of an emulsifying agent mixture (35% butylamine salt of dodecylbenzenesulfonic acid and 65% tall oil condensed with ethylene oxide in the ratio of 11 mols of ethylene oxide/mol of tall oil) to give a spray solution or suspension. The spray solution or suspension contains a sufficient amount of the candidate chemical in order to give application rates of the active ingredient corresponding to those shown in Table D below while applying a total amount of solution or suspension equivalent to 1870 L/Ha (200 gallons/acre). The pans are returned to the greenhouse and watered as before and the injury to the plants as compared to the control pans is observed at approximately 10-14 days (usually 11 days).
as §3

COC(=O)c1c(OC)nc(C(F)(F)F)c(-c2nnc(C)o2)c1CC(C)C [Compound 103, 3-pyridinecarboxylic acid, 2-methoxy-5-(5-methy1-1,3,4-oxadiazo1-2-yl)-4-(2-methylpropyl)-6-(trifluoromethyl)-, methyl ester]
0 to 24%: inhibition at 11200 g/ha [2] | inhibition at 11200 g/ha [6]
75 to 100%: inhibition at 11200 g/ha [1] | inhibition at 11200 g/ha [4] | inhibition at 11200 g/ha [5]
50 to 74%: inhibition at 11200 g/ha [3]
2: plant injury rating, Lacg ([11]; 5.6050 kg/ha) | plant injury rating, Sobe ([14]; 5.6050 kg/ha)
0: plant injury rating, Bygr ([7]; 0.0701 kg/ha) | plant injury rating, Bygr ([7]; 0.2803 kg/ha) | plant injury rating, Bygr ([7]; 1.1219 kg/ha) | plant injury rating, Bygr ([7]; 5.6050 kg/ha) | plant injury rating, Cobu ([8]; 0.0701 kg/ha) | plant injury rating, Cobu ([8]; 0.2803 kg/ha) | plant injury rating, Cobu ([8]; 1.1219 kg/ha) | plant injury rating, Cobu ([8]; 5.6050 kg/ha) | plant injury rating, Corn ([9]; 0.0701 kg/ha) | plant injury rating, Corn ([9]; 0.2803 kg/ha) | plant injury rating, Grft ([10]; 0.0701 kg/ha) | plant injury rating, Grft ([10]; 0.2803 kg/ha) | plant injury rating, Grft ([10]; 1.1219 kg/ha) | plant injury rating, Grft ([10]; 5.6050 kg/ha) | plant injury rating, Lacg ([11]; 0.0701 kg/ha) | plant injury rating, Lacg ([11]; 0.2803 kg/ha) | plant injury rating, Lacg ([11]; 1.1219 kg/ha) | plant injury rating, Prmi ([12]; 0.0701 kg/ha) | plant injury rating, Prmi ([12]; 0.2803 kg/ha) | plant injury rating, Prmi ([12]; 1.1219 kg/ha) | plant injury rating, Prmi ([12]; 5.6050 kg/ha) | plant injury rating, Rice ([13]; 0.0701 kg/ha) | plant injury rating, Rice ([13]; 0.2803 kg/ha) | plant injury rating, Rice ([13]; 1.1219 kg/ha) | plant injury rating, Rice ([13]; 5.6050 kg/ha) | plant injury rating, Sobe ([14]; 0.0701 kg/ha) | plant injury rating, Sobe ([14]; 0.2803 kg/ha) | plant injury rating, Sobe ([14]; 1.1219 kg/ha) | plant injury rating, Whez ([15]; 0.0701 kg/ha) | plant injury rating, Whez ([15]; 0.2803 kg/ha) | plant injury rating, Whez ([15]; 1.1219 kg/ha) | plant injury rating, Whez ([15]; 5.6050 kg/ha) | plant injury rating, Dobr ([16]; 0.0701 kg/ha) | plant injury rating, Dobr ([16]; 0.2803 kg/ha) | plant injury rating, Dobr ([16]; 1.1219 kg/ha) | plant injury rating, Dobr ([16]; 5.6050 kg/ha)
3: plant injury rating, Corn ([9]; 1.1219 kg/ha) | plant injury rating, Corn ([9]; 5.6050 kg/ha)

COC(=O)c1c(OC)nc(C(F)(F)F)c(C2=NCCS2)c1CC(C)C [Compound 50, 3-pyridinecarboxylic acid, 5-(4,5-dihydro-2-thiazolyl)-2-methoxy-4-(2-methylpropyl)-6-(trifluoromethyl)-, methyl ester]
1: plant injury rating, Bygr ([7]; 1.1210 kg/ha) | plant injury rating, Cobu ([8]; 0.2803 kg/ha) | plant injury rating, Grft ([10]; 0.2803 kg/ha) | plant injury rating, Grft ([10]; 1.1210 kg/ha) | plant injury rating, Prmi ([12]; 0.2803 kg/ha) | plant injury rating, Rice ([13]; 1.1210 kg/ha) | plant injury rating, Sobe ([14]; 0.2803 kg/ha)
75 to 100%: inhibition at 11200 g/ha [1] | inhibition at 11200 g/ha [2] | inhibition at 11200 g/ha [3] | inhibition at 11200 g/ha [4] | inhibition at 11200 g/ha [5] | inhibition at 11200 g/ha [6]
2: plant injury rating, Cobu ([8]; 1.1210 kg/ha) | plant injury rating, Grft ([10]; 5.3808 kg/ha) | plant injury rating, Sobe ([14]; 1.1210 kg/ha)
0: plant injury rating, Bygr ([7]; 0.0701 kg/ha) | plant injury rating, Bygr ([7]; 0.2803 kg/ha) | plant injury rating, Cobu ([8]; 0.0701 kg/ha) | plant injury rating, Corn ([9]; 0.0701 kg/ha) | plant injury rating, Corn ([9]; 0.2803 kg/ha) | plant injury rating, Grft ([10]; 0.0701 kg/ha) | plant injury rating, Prmi ([12]; 0.0701 kg/ha) | plant injury rating, Rice ([13]; 0.0701 kg/ha) | plant injury rating, Rice ([13]; 0.2803 kg/ha) | plant injury rating, Rice ([13]; 5.3808 kg/ha) | plant injury rating, Sobe ([14]; 0.0701 kg/ha) | plant injury rating, Whez ([15]; 0.0701 kg/ha) | plant injury rating, Whez ([15]; 0.2803 kg/ha) | plant injury rating, Whez ([15]; 1.1210 kg/ha) | plant injury rating, Whez ([15]; 5.3808 kg/ha) | plant injury rating, Dobr ([16]; 0.0701 kg/ha) | plant injury rating, Dobr ([16]; 1.1210 kg/ha) | plant injury rating, Dobr ([16]; 5.3808 kg/ha)
3: plant injury rating, Cobu ([8]; 5.3808 kg/ha) | plant injury rating, Lacg ([11]; 0.2803 kg/ha) | plant injury rating, Lacg ([11]; 1.1210 kg/ha) | plant injury rating, Lacg ([11]; 5.3808 kg/ha) | plant injury rating, Sobe ([14]; 5.3808 kg/ha)
